Experimental data as given in patent US20230055961A1, “PENTAFLUOROBENZENESULFONAMIDE DERIVATIVES AND USES THEREOF” (Dunad Therapeutics Ltd., priority 2019, published 2023).

Tests used:
[1] = target: EGFR (Homo sapiens, UniProt P00533); test: In vitro kinase inhibition studies (Table 13), EGFR; format: biochemical
[2] = target: T1, JAK3 (Homo sapiens, UniProt P52333); test: In vitro kinase inhibition studies (Table 13), JAK3; format: biochemical
T1 sequence (P52333 1-1124): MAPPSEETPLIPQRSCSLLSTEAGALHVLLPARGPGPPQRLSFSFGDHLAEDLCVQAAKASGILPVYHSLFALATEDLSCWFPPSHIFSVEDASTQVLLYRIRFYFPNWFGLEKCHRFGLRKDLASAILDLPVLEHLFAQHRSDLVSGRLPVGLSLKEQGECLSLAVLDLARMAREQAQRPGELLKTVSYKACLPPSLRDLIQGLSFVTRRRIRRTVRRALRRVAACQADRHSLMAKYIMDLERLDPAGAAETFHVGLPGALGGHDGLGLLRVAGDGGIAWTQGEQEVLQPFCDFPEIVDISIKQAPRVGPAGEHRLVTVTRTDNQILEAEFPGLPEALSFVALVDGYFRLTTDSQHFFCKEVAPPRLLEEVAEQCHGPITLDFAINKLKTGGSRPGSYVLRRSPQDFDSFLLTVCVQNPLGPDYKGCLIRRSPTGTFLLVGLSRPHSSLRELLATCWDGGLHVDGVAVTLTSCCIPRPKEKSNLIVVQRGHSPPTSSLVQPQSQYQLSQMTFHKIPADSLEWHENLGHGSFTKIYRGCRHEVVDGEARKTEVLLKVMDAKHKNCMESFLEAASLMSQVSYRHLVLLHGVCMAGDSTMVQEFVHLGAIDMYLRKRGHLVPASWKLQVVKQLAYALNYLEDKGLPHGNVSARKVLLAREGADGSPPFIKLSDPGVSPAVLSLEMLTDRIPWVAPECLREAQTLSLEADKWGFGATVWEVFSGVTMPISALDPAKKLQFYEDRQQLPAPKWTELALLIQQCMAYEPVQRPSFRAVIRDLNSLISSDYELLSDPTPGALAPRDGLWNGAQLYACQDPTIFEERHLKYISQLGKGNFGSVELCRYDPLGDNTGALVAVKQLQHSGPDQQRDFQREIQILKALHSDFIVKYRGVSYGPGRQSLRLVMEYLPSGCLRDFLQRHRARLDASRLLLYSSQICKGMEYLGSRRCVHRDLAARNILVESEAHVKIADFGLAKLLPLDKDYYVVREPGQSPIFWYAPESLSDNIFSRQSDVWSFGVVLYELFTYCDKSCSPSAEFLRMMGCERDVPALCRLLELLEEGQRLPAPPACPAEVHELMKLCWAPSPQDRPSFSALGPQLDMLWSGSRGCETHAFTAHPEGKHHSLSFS

[3] = target: T2, BMX (Homo sapiens, UniProt P51813); test: In vitro kinase inhibition studies (Table 9), BMX; format: biochemical
T2 sequence (P51813 1-675): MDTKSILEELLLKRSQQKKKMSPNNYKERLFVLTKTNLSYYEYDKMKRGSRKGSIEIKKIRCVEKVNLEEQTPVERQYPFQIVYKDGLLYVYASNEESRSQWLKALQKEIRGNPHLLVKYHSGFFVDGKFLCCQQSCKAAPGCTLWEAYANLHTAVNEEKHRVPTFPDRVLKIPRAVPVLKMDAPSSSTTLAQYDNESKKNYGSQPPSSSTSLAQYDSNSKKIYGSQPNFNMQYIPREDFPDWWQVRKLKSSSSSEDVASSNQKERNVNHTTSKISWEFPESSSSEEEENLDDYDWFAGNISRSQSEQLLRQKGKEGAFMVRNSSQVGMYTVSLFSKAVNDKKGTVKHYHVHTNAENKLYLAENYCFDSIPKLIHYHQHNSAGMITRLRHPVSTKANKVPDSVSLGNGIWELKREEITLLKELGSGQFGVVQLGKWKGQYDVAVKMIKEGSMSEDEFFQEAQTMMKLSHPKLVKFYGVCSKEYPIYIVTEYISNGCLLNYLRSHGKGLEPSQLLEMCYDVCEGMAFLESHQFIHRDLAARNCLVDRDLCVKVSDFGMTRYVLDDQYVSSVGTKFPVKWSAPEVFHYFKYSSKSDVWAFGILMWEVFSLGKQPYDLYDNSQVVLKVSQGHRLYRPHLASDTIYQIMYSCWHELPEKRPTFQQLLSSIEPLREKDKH

[4] = target: ERBB2 (Homo sapiens, UniProt P04626); test: In vitro kinase inhibition studies (Table 13), ERBB2; format: biochemical
[5] = target: EGFR L850R (Homo sapiens, UniProt P00533); test: In vitro kinase inhibition studies (Table 13), EGFR L850R; format: biochemical
[6] = test system: normal pooled human fibroblasts; test: IC50 of Ibrutinib analogs against normal human cells, pooled human fibroblasts (Table 14); format: cell-based; conditions: Fibroblast, Table 14, normal human cell line
Protocol: Anti-cancer efficacy of exemplary compounds of this application is assessed in vitro in different cancer cell lines. Cell viability is examined following treatment at various concentration of inhibitor (0.097656-50 μM) using a cell Titer-Blue cell viability assay. 1×10^4 cells (NHF cells)/well are plated in 96-well assay plates in culture medium. All cells are grown in DMEM, IMDM and RPMI-1640 supplemented with 10% FBS. After 24 hrs, test compounds and vehicle controls are added to appropriate wells so the final volume is […] in each well. The cells are cultured for the desired test exposure period (72 hrs) at 37° C. and 5% CO2. The assay plates are removed from 37° C. incubator and 20 μl/well of CellTiter-Blue® Reagent is added. The plates are incubated using standard cell culture conditions for 1-4 hours and the plates are shaken for 10 seconds and record fluorescence at 560/590 nm.
Therapeutic index=(IC50 human fibroblasts/IC50 RLcells)

[7] = target: ERBB4 (Homo sapiens, UniProt Q15303); test: In vitro kinase inhibition studies (Table 13), ERBB4; format: biochemical
[8] = target: FGFR; test: In vitro kinase inhibition studies (Table 13), FGFR; format: biochemical

Sequence of ERBB4 (Q15303 26-1308, species assumed): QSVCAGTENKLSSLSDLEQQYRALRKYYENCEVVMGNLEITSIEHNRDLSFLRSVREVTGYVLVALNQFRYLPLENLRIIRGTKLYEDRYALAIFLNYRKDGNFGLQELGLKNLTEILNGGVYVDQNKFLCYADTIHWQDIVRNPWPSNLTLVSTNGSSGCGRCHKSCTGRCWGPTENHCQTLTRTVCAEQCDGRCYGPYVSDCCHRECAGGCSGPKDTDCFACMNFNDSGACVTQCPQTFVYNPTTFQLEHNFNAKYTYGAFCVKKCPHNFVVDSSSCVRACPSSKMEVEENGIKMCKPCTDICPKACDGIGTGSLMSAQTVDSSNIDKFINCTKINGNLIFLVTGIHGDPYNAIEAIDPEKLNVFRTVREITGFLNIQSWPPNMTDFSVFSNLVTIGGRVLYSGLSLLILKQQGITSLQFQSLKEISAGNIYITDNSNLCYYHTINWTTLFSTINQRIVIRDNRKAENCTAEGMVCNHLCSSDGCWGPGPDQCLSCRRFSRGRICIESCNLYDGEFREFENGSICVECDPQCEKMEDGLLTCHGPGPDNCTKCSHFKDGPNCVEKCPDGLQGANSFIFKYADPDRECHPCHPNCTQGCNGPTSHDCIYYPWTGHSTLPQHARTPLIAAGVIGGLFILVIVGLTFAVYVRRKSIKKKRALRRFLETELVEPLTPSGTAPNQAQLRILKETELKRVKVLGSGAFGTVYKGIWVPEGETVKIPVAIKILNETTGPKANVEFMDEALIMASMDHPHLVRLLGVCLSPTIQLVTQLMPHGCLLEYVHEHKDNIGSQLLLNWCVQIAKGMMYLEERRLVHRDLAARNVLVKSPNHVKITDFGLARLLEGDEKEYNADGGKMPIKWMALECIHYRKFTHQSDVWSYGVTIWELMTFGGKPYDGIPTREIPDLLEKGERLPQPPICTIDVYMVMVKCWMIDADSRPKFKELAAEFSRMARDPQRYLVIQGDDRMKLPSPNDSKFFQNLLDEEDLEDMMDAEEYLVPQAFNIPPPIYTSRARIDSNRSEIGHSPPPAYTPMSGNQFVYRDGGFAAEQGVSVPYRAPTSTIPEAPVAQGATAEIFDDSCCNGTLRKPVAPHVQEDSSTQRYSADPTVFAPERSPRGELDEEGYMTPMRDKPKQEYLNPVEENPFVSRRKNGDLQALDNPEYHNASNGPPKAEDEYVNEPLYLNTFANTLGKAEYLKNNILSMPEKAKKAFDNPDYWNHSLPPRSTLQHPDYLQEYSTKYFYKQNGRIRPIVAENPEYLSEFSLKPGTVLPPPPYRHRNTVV
Sequence of ERBB2 (P04626 23-1255, species assumed): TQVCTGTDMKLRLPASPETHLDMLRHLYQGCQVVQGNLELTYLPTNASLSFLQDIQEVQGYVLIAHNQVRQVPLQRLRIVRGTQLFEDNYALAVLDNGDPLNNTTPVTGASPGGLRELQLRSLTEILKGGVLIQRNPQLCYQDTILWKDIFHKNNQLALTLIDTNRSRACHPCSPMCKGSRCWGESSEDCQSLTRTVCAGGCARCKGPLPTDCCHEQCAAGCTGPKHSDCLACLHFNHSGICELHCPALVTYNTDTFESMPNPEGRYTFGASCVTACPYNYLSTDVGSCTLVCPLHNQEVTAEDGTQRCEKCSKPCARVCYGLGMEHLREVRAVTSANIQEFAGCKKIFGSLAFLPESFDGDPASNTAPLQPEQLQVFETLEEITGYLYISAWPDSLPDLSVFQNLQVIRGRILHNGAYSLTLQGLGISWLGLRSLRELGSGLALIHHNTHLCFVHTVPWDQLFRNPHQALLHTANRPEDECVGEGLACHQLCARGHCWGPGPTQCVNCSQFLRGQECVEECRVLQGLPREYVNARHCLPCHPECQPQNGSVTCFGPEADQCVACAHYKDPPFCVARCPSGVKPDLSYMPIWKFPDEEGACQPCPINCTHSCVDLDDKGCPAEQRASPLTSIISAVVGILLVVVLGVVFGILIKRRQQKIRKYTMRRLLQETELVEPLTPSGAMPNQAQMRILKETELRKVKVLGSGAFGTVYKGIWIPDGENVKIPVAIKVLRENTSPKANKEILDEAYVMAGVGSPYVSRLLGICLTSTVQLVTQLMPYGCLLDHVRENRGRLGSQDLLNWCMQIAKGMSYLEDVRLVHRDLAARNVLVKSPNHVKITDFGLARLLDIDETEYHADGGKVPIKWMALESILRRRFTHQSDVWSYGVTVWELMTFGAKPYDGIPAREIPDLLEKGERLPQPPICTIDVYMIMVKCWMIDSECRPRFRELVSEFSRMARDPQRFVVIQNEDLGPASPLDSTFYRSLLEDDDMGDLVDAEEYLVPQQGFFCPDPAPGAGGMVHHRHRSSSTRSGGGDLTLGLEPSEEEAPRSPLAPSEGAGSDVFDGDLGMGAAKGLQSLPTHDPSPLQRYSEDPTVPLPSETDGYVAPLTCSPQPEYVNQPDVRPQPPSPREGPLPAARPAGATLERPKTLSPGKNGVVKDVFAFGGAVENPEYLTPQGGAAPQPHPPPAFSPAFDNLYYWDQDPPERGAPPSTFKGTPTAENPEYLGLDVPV
Sequence of EGFR (P00533 25-1210, species assumed): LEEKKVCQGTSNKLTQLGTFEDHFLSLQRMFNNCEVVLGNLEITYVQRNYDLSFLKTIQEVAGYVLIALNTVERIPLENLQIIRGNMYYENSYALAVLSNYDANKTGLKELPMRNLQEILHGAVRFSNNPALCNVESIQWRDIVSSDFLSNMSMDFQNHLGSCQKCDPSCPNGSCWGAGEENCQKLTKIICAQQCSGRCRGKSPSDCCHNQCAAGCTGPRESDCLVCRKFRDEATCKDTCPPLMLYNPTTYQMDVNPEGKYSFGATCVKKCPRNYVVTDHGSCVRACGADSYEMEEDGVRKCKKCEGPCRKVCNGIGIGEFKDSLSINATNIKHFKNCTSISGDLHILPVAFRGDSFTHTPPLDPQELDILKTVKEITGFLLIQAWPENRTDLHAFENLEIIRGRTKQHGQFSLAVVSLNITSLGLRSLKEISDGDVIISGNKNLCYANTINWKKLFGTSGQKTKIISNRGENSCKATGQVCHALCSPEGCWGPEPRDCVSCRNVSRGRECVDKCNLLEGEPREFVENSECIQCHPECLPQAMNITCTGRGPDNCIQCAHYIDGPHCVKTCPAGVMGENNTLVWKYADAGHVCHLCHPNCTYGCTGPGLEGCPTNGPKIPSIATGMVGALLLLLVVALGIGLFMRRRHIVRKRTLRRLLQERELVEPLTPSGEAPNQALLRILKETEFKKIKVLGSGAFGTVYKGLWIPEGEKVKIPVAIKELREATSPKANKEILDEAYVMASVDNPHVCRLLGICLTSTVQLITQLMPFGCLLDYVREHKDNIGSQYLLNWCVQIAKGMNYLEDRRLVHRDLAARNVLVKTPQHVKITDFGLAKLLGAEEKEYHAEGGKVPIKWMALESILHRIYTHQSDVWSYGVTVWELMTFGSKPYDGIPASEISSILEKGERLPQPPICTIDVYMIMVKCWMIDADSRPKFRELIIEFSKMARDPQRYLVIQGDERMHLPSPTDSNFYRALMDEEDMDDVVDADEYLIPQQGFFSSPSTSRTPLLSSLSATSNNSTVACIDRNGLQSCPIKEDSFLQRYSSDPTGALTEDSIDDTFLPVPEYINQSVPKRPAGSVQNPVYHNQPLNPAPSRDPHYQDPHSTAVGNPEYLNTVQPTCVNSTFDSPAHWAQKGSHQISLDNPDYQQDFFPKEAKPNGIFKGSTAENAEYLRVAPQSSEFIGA
Sequence of EGFR L850R (P00533 whole entry L858R, form open): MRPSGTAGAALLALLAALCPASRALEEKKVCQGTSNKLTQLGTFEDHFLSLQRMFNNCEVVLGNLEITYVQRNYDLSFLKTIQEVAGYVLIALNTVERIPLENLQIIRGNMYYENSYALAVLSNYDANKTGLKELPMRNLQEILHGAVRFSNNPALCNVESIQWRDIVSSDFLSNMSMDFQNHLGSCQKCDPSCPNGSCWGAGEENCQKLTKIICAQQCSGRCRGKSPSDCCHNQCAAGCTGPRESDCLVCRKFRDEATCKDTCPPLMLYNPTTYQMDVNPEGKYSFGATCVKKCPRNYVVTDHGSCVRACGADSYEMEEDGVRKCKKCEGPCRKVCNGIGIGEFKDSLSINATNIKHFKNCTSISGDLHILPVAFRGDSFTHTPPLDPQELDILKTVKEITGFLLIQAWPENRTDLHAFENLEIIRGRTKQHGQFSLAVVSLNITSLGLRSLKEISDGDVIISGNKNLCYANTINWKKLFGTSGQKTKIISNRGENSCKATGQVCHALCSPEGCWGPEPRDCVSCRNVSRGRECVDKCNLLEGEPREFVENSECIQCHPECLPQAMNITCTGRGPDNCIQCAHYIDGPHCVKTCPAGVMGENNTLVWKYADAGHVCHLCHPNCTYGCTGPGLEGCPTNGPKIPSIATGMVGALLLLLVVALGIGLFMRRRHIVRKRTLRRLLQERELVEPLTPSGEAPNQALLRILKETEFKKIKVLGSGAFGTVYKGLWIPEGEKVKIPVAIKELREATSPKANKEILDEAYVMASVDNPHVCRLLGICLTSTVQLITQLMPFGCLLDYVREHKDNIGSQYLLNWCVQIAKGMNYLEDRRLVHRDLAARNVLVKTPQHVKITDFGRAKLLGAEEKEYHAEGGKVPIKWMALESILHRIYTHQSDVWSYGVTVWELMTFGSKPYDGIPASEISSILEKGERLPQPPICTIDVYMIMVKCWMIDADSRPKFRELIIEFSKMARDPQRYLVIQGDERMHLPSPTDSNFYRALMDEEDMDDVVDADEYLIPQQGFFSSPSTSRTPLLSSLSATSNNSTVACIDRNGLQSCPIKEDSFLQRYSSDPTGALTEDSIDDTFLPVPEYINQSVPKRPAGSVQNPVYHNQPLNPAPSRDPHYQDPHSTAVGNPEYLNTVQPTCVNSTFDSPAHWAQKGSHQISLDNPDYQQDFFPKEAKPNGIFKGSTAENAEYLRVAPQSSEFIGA

In the case of `Nc1ncnc2c1c(-c1ccc(Oc3ccccc3)cc1)nn2[C@@H]1CCCN(S(=O)(=O)c2c(F)c(F)c(F)c(F)c2F)C1` [Compound 5-1, (R)-1-(1-((perfluorophenyl)sulfonyl)piperidin-3-yl)-3-(4-phenoxyphenyl)-1H-pyrazolo[3,4-d]pyrimidin-4-amine], the IC50 [1] is reported as 100 to 1000 nM, the IC50 [2] is reported as 100 to 1000 nM and the IC50 [3] is reported as 0.0001 to 0.01 µM. It also gave an IC50 [4] of 100 to 1000 nM, an IC50 [5] of 100 to 1000 nM and an IC50 [6] of 6.2 µM. For the same molecule, the IC50 [7] was 100 to 1000 nM and the IC50 [8] was 100 to 1000 nM.
